Laboratory results from publication PMC11660126, “Demethylzeylasteral inhibits oxidative phosphorylation complex biogenesis by targeting LRPPRC in lung cancer” (Journal of Cancer, 2025).

Target: T1, LRPPRC (Leucine-rich pentatricopeptide repeat-containing protein) (Homo sapiens, UniProt P42704)
T1 construct: GST fusion)
Assay: Intrinsic fluorescence quenching titration of purified LRPPRCΔ[…]; confirmed by BLI (KD […]) and CETSA in A549 and H1299 cells
Format: binding

T1 sequence (P42704 1121-1394): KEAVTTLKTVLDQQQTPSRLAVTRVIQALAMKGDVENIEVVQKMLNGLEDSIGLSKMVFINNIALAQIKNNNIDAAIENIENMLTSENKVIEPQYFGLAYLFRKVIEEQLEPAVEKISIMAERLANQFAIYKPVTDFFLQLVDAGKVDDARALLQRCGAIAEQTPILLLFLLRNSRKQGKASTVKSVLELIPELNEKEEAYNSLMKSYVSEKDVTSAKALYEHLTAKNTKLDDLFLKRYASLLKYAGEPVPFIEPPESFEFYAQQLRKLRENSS

C[C@@]1(C(=O)O)CC[C@]2(C)CC[C@]3(C)C4=CC(=O)c5c(cc(O)c(O)c5C=O)[C@]4(C)CC[C@@]3(C)[C@@H]2C1 [T-96, Demethylzeylasteral]
Kd: 21.4 µM
